Read-outs that look alike come from different tables or passages of the source.

One may read the IC50 as the midpoint of a concentration-inhibition curve.

For one data set, the target named is T1, elastase (Homo sapiens, UniProt P08246).
T1 sequence (P08246 30-247 limits assumed): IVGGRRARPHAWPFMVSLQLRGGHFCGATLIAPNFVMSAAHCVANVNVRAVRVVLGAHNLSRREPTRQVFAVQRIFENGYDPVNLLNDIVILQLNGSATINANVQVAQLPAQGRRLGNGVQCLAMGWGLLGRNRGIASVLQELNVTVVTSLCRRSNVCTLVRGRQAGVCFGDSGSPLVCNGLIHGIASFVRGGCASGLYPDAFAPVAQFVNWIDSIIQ
The data set is described as follows: Elastase cleavage of synthetic substrate N-methoxysuccinyl-Ala-Ala-Pro-Val-p-nitroanalide. The following applies: 2 μg of elastase, FIG. 1, read-out: IC50 for the inhibition of elastase. Format: biochemical. The protocol: (§1) Elastase activity is assayed using the specific substrate, N-methoxysuccinyl-Ala-Ala-Pro-Val-p-nitroanalide, and cathepsin G activity was measured using N-succinyl-Ala-Pro-Phe-p-nitroanalide. The assay buffer, 0.1M HEPES with 0.5M NaCl and 0.1% Brij-35, is used to dilute the elastase substrate to a final concentration of 0.2 mM and the cathepsin G substrate to 1 mM. The appropriate substrate in 2 ml of assay buffer is incubated at 37° C. in a heated spectrophotometer cell and the reaction is started by the addition of enzyme. In experiments where inhibitors were tested, the inhibitors were incubated with the enzyme for 5 min before the addition of substrate. […] was continuously monitored at 410 nm using a diode array spectrophotometer. Kinetic constants were determined using the kinetics software of the spectrophotometer.
(§2) The ability of several sulfated polymers to inhibit elastase and cathepsin G degradation of their respective substrates was examined. MDL-101,028, a compound falling within the scope of the claimed invention, where the value of n is 6, and 4,4'-Diisothiocyanatostilbene-2,2'-disulfonic acid, internally identified as MDL-101,114 (DIDS) inhibited both elastase and cathepsin G in a dose-dependent manner.

Data set [1] addresses T2, cathepsin G (Homo sapiens, UniProt P08311).
T2 construct: Both purified human neutrophil elastase and cathepsin G degrade CPG; from tissue; host or cells: human neutrophils
T2 sequence (P08311 21-244 limits assumed): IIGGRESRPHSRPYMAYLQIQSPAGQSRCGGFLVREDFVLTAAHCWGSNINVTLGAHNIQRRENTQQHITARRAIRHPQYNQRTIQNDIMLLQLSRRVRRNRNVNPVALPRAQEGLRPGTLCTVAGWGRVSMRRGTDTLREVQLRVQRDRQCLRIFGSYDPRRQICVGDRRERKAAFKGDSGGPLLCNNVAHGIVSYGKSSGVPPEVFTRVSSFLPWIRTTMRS
The data set is described as follows: Cathepsin G cleavage of synthetic substrate N-succinyl-Ala-Pro-Phe-p-nitroanalide. Format: biochemical. The following applies: 2 micrograms of cathepsin G, FIG. 2, read-out: IC50 for the inhibition of cathepsin G. The protocol: as §1, §2

Data set [2] deals with T3, purified human neutrophil elastase (Homo sapiens, UniProt P08246).
T3 construct: Both purified human neutrophil elastase and cathepsin G degrade CPG; from tissue; host or cells: human neutrophils
T3 sequence (P08246 30-247 limits assumed): T1 sequence (P08246 30-247 limits assumed)
The data set is described as follows: Elastase mediated degradation of 35S-labeled cartilage matrix proteoglycan (CPG). The class given is biochemical. The following applies: cartilage discs, 4 hours at 37° C., FIG. 3. As to the method:
(§3) Fresh bovine nasal septa were obtained from a local abattoir and 4 mm cartilage cylinders were prepared using a No. 2 cork borer. The cylinders were sliced into 1 mm discs. The top and bottom discs were discarded and the remaining cartilage discs were pooled, washed three times in HBSS and resuspended in Dulbecco's Modified Eagles Medium (DMEM) with antibiotics and supplements. The sulfated sugars that constitute the glycosaminoglycan side chains of cartilage proteoglycan were radiolabeled by the addition of 10 μCi/ml of Na2^35 SO4 followed by incubation overnight at 37° C. with gentle rocking. […]
(§4) The ability of neutrophil proteases to degrade connective tissue matrix was measured by incubating ^35 S-radiolabeled cartilage discs with neutrophil lysate, purified elastase or cathepsin G in serumless media for 4 hours at 37° C. and collecting the supernatants and counting the radiolabeled material in the supernatants and discs. The radioactivity remaining in the cartilage discs after removal of the supernatant was assayed by completely digesting the discs in 6M HCl at 100° C. for 1 hour, removing the HCl by vacuum evaporation and resuspending the dried material in 0.5 ml HBSS. Supernatants and processed discs were counted in a Beckman LS 3801 scintillation counter. The data were expressed as the percent at ^35 S label released into the supernatant. […]

Data set [3] concerns the target T2, cathepsin G. As to the kind of experiment: Cathepsin G mediated degradation of 35S-labeled cartilage matrix proteoglycan (CPG). The following applies: cartilage discs, 4 hours at 37° C., FIG. 4. Format: biochemical. As to the method:
as §3, §4

The test system of a further data set is Human neutrophil lysate. As to the kind of experiment: Human neutrophil lysate mediated degradation of CPG. The class given is biochemical. The following applies: lysate 1:100, 4 hour at 37° C., FIG. 5. The protocol:
Human neutrophil granule lysates were prepared by resuspending 2.5×10^8 in 4 ml of […] sucrose and sonicating for 30 seconds using a microtip probe. […] The neutrophil lysate was centrifuged at 1000×g for 10 min. at 4° C., the supernatant was collected and centrifuged at 30,000×g for 30 min. at 4° C. and the pellet containing neutrophil granules was resuspended in 2 ml of 0.05M sodium acetate buffer, pH 5.5, containing 1M NaCl and 0.1% Brij-35 and kept on ice for 30 min. with several brief sonications of approximately 30 seconds during the incubation period. […] The granule lysate was centrifuged at 30,000×g for 30 min. at 4° C. and the supernatant was collected, tested for elastase and cathepsin G content using synthetic substrates as described above, aliquoted and stored at […] until used.
Fresh bovine nasal septa were obtained from a local abattoir and 4 mm cartilage cylinders were prepared using a No. 2 cork borer. The cylinders were sliced into 1 mm discs. The top and bottom discs were discarded and the remaining cartilage discs were pooled, washed three times in HBSS and resuspended in Dulbecco's Modified Eagles Medium (DMEM) with antibiotics and supplements. […]
as §4

Data set [4] deals with Human neutrophils. As to the kind of experiment: Neutrophil viability (trypan blue exclusion, lactic dehydrogenase release). Format: cell-based. The protocol: (§5) Radiolabeled cartilage discs were placed into the wells of 96-well microtiter plates and overlayed with human neutrophils suspended in DMEM containing 10% FCS. The neutrophils were stimulated by the addition of 1 mg/ml of opsonized zymosan and incubated for 4 hours at 37° C. with 5% CO2. Connective tissue matrix degradation was quantitated by the amount of radiolabel released. In experiments using protease inhibitors, the inhibitors were added immediately after the neutrophils. The viability of the neutrophils incubated with the protease inhibitors was determined by assaying the supernatants for lactic dehydrogenase (LDH) and by neutrophil exclusion of trypan blue. In addition, the effect of protease inhibitors on primary granule enzyme secretion was monitored by measuring the release of myeloperoxidase.
(§6) The percentage of neutrophils stimulated with zymosan in media for 4 hours that excluded trypan blue was 85% compared to 77%-87% for neutrophils incubated with MDL-101,028 at doses of 4, 10, and 25 μM, respectively. This correlated with LDH release which was 9% for stimulated neutrophils treated with media, compared to 7-11% for neutrophils incubated with MDL-101,028 at concentrations of 4-25 μM.

In data set [5] the test system is Human neutrophils. The data set is described as follows: Primary granule enzyme secretion (myeloperoxidase release) from neutrophils. The following applies: stimulated neutrophils. Format: cell-based. The protocol: as §5, §6
The subject of data set [6] is human neutrophil elastase. The data set is described as follows: Elastase induced pulmonary hemorrhage in rats. The following applies: rat; for Inhibition of lung hemorrhage (hemoglobin in lavage fluid): 100 μg elastase, FIG. 7; for Inhibition of lung hemorrhage: intratracheal, FIG. 8. The class given is in vivo, Male Sprague Dawley rats. The protocol: Male Sprague Dawley rats were anesthetized with chloral hydrate (300 mg/kg) and either saline or human neutrophil elastase was administered intratracheally. Briefly, rats were placed on a surgical board, ventral side up, and their mouths held open using a rubber band placed over their incisors. The tongue was held to the side and 100 micro liters of elastase solution (1 mg/ml) was administered into the trachea with the aid of a bright light source and a 3 inch, 22 gauge blunt-end needle. One hour after elastase administration, the rats were sacrificed using CO2 and the trachea was surgically exposed and cannulated. The lungs were lavaged with 10 ml of saline and the hemoglobin content was-determined using the cyanmethemoglobin assay. In experiments where inhibitors were tested, the compounds were given intratracheally in 100 μl of saline at various times before elastase administration.
Intratracheal instillation of human leukocyte elastase produced acute lung injury as assessed by hemorrhage (FIG. 7). The hemorrhage was quantified by measuring the hemoglobin content of the pulmonary lavage fluid. […] When MDL-101,028 was administered intratracheally immediately before elastase (within 30 seconds) at doses of 280 μg, 700 μg, or 2800 μg, lung hemorrhage was inhibited by 48%, 90%, and 90% respectively (FIG. 7).
MDL-101,028 was administered to rats at various time intervals before instillation of elastase to determine the duration of action.

Turning to `Cc1ccc(NC(=O)Nc2ccc(-c3ccc(NC(=O)Nc4ccc(-c5ccc(NC(=O)Nc6ccc(-c7ccc(NC(=O)Nc8ccc(-c9ccc(NC(=O)Nc%10ccc(-c%11ccc(NC(=O)Nc%12ccc(-c%13ccc(NC(=O)Nc%14ccc(C)cc%14)cc%13S(=O)(=O)O)c(S(=O)(=O)O)c%12)cc%11S(=O)(=O)O)c(S(=O)(=O)O)c%10)cc9S(=O)(=O)O)c(S(=O)(=O)O)c8)cc7S(=O)(=O)O)c(S(=O)(=O)O)c6)cc5S(=O)(=O)O)c(S(=O)(=O)O)c4)cc3S(=O)(=O)O)c(S(=O)(=O)O)c2)cc1` [MDL-101,028], the IC50 at elastase is 0.04 µM; on cathepsin G [1], 0.08 µM; in data set [2] (read-out: IC50, elastase mediated CPG degradation), roughly 8 µM; on cathepsin G [3] (read-out: IC50, cathepsin G mediated CPG degradation), roughly 9 µM. Also, the figures for the “Inhibition of CPG degradation by neutrophil lysate” value in the data set with Human neutrophil lysate (4 μmolar), with Human neutrophil lysate (10 μmolar) and with Human neutrophil lysate (25 μmolar) were 54%, 70% and 79%, respectively. In addition, in the data set on Human neutrophils [4] (concentrations of 4-25 μM, stimulated neutrophils (media control 9%), 240 min), the LDH release is reported as 7-11%. In addition, the “Percentage of neutrophils that excluded trypan blue” value in the data set with Human neutrophils [4] (doses of 4, 10, and 25 μM, zymosan stimulated, 4 hours (media control 85%)) was 77%-87%. Besides, in the data set on Human neutrophils [4] (trypan blue exclusion and lactic dehydrogenase release), the “Viability of the neutrophils” value is recorded as “not diminished”. For the same compound, the “Myeloperoxidase release from neutrophils” value in the data set on Human neutrophils [5] is listed as “not inhibited”. Moreover, the results for the “Inhibition of lung hemorrhage (hemoglobin in lavage fluid)” value in data set [6] (280 μg intratracheally immediately before elastase (within 30 seconds)), in data set [6] (700 μg intratracheally immediately before elastase (within 30 seconds)) and in data set [6] (2800 μg intratracheally immediately before elastase (within 30 seconds)) were 48%, 90% and 90%, respectively. The “Inhibition of lung hemorrhage” value in data set [6] (administered 1 hour before elastase) is reported as 61%; in data set [6] (administered 2 hours before elastase) it was 63%; in data set [6] (administered 4 hours before elastase), 20%. The Duration of action result in data set [6] (intratracheal route) is “greater than two hours and less than four hours”.
As to `O=S(=O)(O)c1cc(N=C=S)ccc1C=Cc1ccc(N=C=S)cc1S(=O)(=O)O` [DIDS, 4,4'-Diisothiocyanatostilbene-2,2'-disulfonic acid, reference compound], the IC50 at elastase amounted to 1.1 µM; on cathepsin G [1] it was 1.4 µM; in data set [2] (read-out: IC50, elastase mediated cartilage degradation), 38 µM; at cathepsin G [3] (read-out: IC50, cathepsin G mediated cartilage degradation) it was 50 µM.

The values are drawn from patent publication US5384119A, “Method of preventing neutrophil mediated connective tissue damage” (Merrell Dow Pharmaceuticals Inc., priority 1993, dated 1995).
